Experimental data: patent US20140086938A1, “METHODS OF INHIBITING TUMOR GROWTH USING TTK ANTAGONISTS” (University Health Network, priority 2007, published 2014)

Tests used:
Assay in all cases: SP600125 SRB growth inhibition
Format in all cases: cell-based
MDA-MB-330 = details: Homo sapiens, 120 h, SRB assay 5 days after addition
Method: (§1) Compound SP600125 was purchased from Biomol International (PA, USA). 10 mM stock was prepared in 100% DMSO. Cells were seeded at various numbers, ranging from 1500 to 4000 per 80 μl in each well according to cell growth rate, into 96 well plates, 24 hours before compound overlay. The 10 mM SP600125 compounds stock in 100% DMSO was diluted with Opti-MEM I Reduced-Serum Medium (Invitrogen, Burlington, ON, Canada) to concentrations range from 50 nM to 250 μM. 20 μl from each concentration was overlay to cells to make the final concentrations range from 10 nM to 50 μM. The cells were cultured for 5 days before Sulforhodamine B assay. SRB assay is performed to assess cell survival. SRB is a water-soluble dye that binds to the basic amino acids of the cellular proteins. Thus, colorimetric measurement of the bound dye provides an estimate of the total protein mass that is related to the cell number. the cells are fixed in situ by gently aspirating off the culture media and adding 50 μl ice cold 10% Tri-chloroacetic Acid (TCA) per well and incubate at 4° C. for 30-60 min. The plates are washed with tap water five times and allowed to air dry for 5 min. Add 50 μl 0.4% (w/v) Sulforhodamine B solution in 1% (v/v) acetic acid per well and incubate for 30 min at RT for staining. Following staining, plates are washed four times with 1% acetic acid to remove any unbound dye and then allowed to air dry for 5 min. Stain is solubilized with 100 ul of 10 mM Tris pH 10.5 per well. Absorbance is read at 570 nm. The cell survival percentage in each compound concentration was calculated over the cell DMSO control, which was growing in the presence of 0.1% DMSO (0.5% in the case of 50 μM compounds). The GI50 were calculated using GraphPad PRISM software.
(§2) Cell viability was assessed using the SRB assay described herein, which was performed 5 days after the addition of SP600125 to the culture media. Prism software was used to calculate GI50 (concentration of the compound required to achieve 50% growth inhibition) (Table 3).

BT474 = details: Homo sapiens, BT-474, 120 h, SRB assay 5 days after addition
Method: as §1, §2

HCC1419 = details: Homo sapiens, 120 h, SRB assay 5 days after addition
Method: as §1, §2

MCF-7 = details: Homo sapiens, MCF7, 120 h, SRB assay 5 days after addition
Method: as §1, §2

MDA-MB-453 = details: Homo sapiens, 120 h, SRB assay 5 days after addition
Method: as §1, §2

Hs578T = details: Homo sapiens, Hs-578T, 120 h, SRB assay 5 days after addition
Method: as §1, §2

184A = details: Homo sapiens, 120 h, SRB assay 5 days after addition
Method: as §1, §2

T47D = details: Homo sapiens, 120 h, SRB assay 5 days after addition
Method: as §1, §2

MDA-MB-231 = details: Homo sapiens, 120 h, SRB assay 5 days after addition
Method: as §1, §2

MDA-MB-435 = details: Homo sapiens, 120 h, SRB assay 5 days after addition
Method: as §1, §2

MDA-MB-468 = details: Homo sapiens, 120 h, SRB assay 5 days after addition
Method: as §1, §2

SKBr-3 = details: Homo sapiens, SK-BR-3, 120 h, SRB assay 5 days after addition
Method: as §1, §2

- GI50 (MDA-MB-330): 7020 nM
- GI50 (BT474): 8580 nM
- GI50 (HCC1419): 10000 nM
- GI50 (MCF-7): 672 nM
- GI50 (MDA-MB-453): 2300 nM
- GI50 (T47D): 2520 nM
- GI50 (MDA-MB-231): 894 nM
- GI50 (MDA-MB-435): 822 nM
- GI50 (MDA-MB-468): 483 nM
- GI50 (SKBr-3): 812 nM
SMILES: Oc1c2ccccc2c2c3c(cccc13)N=N2 [SP600125, anthra(1,9-cd)pyrazol-6(2H)-one 1,9-pyrazoloanthrone]
- GI50 (Hs578T): 1840 nM
- GI50 (184A): 1590 nM
